The record followed here is US6476032B2, “2,3,4,4a-tetrahydro-1H-pyrazino[1,2-a]quinoxalin-5(6H)one derivatives” (Wyeth, priority 1998, dated 2002).

Where a name gives a salt, the structure may show the parent alone. Read-outs that look alike come from different tables or passages of the source.

In data set [1] the target is T1, human 5-hydroxy-tryptamine2C (h5HT2C) receptor (Homo sapiens, UniProt P28335).
T1 construct: expressed in transfected cells; host or cells: CHO (Chinese Hamster Ovary) cells; membranes
T1 sequence (P28335 33-458): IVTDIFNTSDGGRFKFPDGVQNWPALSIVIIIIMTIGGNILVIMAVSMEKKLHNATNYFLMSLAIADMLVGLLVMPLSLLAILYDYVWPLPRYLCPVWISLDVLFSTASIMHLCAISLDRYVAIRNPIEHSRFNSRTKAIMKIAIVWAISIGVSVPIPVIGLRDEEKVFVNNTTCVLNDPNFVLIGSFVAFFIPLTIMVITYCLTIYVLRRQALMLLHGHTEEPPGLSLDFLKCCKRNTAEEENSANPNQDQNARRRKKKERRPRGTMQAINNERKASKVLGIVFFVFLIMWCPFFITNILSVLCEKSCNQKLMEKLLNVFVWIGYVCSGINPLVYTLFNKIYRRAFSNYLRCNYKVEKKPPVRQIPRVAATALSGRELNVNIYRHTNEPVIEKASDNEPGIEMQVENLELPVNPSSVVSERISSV
In words: 5HT2C Receptor Binding Test Procedure ([125I] DOI).

For a further data set, the target named is T2, human 5-HT2C receptor (Homo sapiens, UniProt P28335).
T2 construct: expressed in transfected cells; host or cells: CHO cells
T2 sequence (P28335 33-458): T1 sequence (P28335 33-458)
The data set can be described thus: Stimulation of [3H] Inositol Monophosphate Production by 5HT2C Agonists. The class given is cell-based.

Data set [2] deals with food intake in male Sprague-Dawley rats. The data set can be described thus: Effects of Compounds on Feeding Behavior in Rats (food intake, 24 hr fast). The note with it: Rattus norvegicus, dose giving 50% reduction in food intake. Type of data set: in vivo. As to the method: Effects of Compounds on Feeding Behavior in Rats
Eight (8) male Sprague-Dawley rats weighing 150-180 g were separated into individual cages and acclimated to a powdered diet for 2 weeks. During this period and throughout the test procedure, the food cup and the animals were weighed daily. Following the acclimation period, animals were fasted for 24 hours and then injected with either vehicle or one of 4 doses of the test compound. Food intake was assessed at 2 and 24 hours following compound administration. Compounds to be evaluated were injected 1-2× per week until all animals had received all doses of the test compound. The order of doses were chosen using to a modified Latin Square design. Additional studies may be conducted in satiated rats at the start of the dark cycle. Compounds were injected i.p, s.c. or p.o. At the end of the study effects of the test compound on food intake was evaluated using a repeated measures ANOVA. Data were collected were 2 hour food intake (g). Data were subjected to one-way ANOVA with posthoc t-tests to assess group differences. Where appropriate, ED50 values were calculated.

Where [3] appears, read: read-out: 5HT2C % Emax (5HT, 100%).
The mark [4] stands for this setting: CHO cells expressing human 5-HT2C, read-out: Stimulation of IP3 (EC50).
The mark [5] stands for this setting: read-out: 5HT2C Affinity DOI/Agonist binding (Ki), [125I] DOI agonist binding.

Protocol for human 5-HT2C receptor: One (1) ml of maintenance medium containing 1 μCi/ml myo-[^3H] inositol was added to each well. After 48 hours labeling, the cells were washed once with 0.5 ml DMEM containing 25 mM HEPES and 10 mM LiCl, then preincubated with the medium for 30 min (antagonists were included in this period if tested). At the end of the preincubation, the medium was removed, the cells were then incubated with test compounds (in presence of antagonists if needed) for 30 min. The reaction was terminated by removal of the incubation solution and addition of 0.5 ml ice-cold 5% PCA, followed by 15 to 30 min incubation on ice. 200 μl of 0.5 M Tes/1.5 M K2CO3 was added to each well to neutralize to pH 7, and plates were left on ice for another 15 to 30 min to precipitate all salts. The liquid and solid phases were separated by centrifugation.
A portion (350 μl) of the upper aqueous phase was applied to Dowex AG-1X8 (formate form, 100-200 mesh) columns. The columns were then washed stepwise with 10 ml of water and 10 ml of 25 mM ammonium formate to remove free myo-[^3H]inositol and deacylated phosphoinositol, respectively. Finally 10 ml of 0.2 M ammonium formate solution was applied to the columns to elute [^3H] inositol monophosphate ([^3H] IP1) directly into scintillation vials. Of this eluate, 1 ml was used to determine radioactivity by scintillation counting.
A 3-parameter logistic function is used to generate estimate of EC50/IC50.

In turn, `O=C1Nc2ccc(Cl)cc2N2CCNC[C@H]12` (as salt: hydrochloride) [Example 12, (R)-9-Chloro-2,3,4,4a-Tetrahydro-1H-Pyrazino[1,2a]Quinoxalin-5(6H)-One] displayed a melting point of 146 to 149 °C.
In turn, `Clc1cc2c(cc1Cl)N1CCNC[C@@H]1CN2` (single isomer, unassigned) [Example 5, dihydrochloride] had a Ki in data set [1] of 7 nM. The molecule also registered an EC50 at human 5-HT2C receptor of 33.8 nM. In addition, the Emax on human 5-HT2C receptor (setting [3]) was found to be 100%.
The like results for `Clc1cc2c(cc1Cl)N1CCNC[C@H]1CN2` (single isomer, unassigned) [Example 6, dihydrochloride] were, in that order, 8 nM, 23.2 nM and 77%.
Turning to `O=C1Nc2cc(Cl)c(Cl)cc2N2CCNCC12` (centres unmarked) [Example 1, 8,9-Dichloro-2,3,4,4a-Tetrahydro-1H-Pyrazino[1,2-a]Quinoxalin-5(6H)-One], the Ki in data set [1] was 4.33 nM. For the same molecule, the EC50 at human 5-HT2C receptor (setting [4]) turned out to be 12 nM. Also, at human 5-HT2C receptor (setting [3]), the Emax worked out at 108%. The ED50 in data set [2] (ip) was determined as 1.91 mg/kg; in data set [2] (po), 9.73 mg/kg.
`O=C1Nc2cc(Cl)c(Cl)cc2N2CCNC[C@H]12` [Example 2, (R)-8,9-Dichloro-2,3,4,4a-Tetrahydro-1H-Pyrazino[1,2-a]Quinoxalin-5(6H)-One] came in with a Ki in data set [1] of 4.18 nM. For the same molecule, the EC50 on human 5-HT2C receptor (setting [4]) is 7.92 nM. The Emax at human 5-HT2C receptor (setting [3]) was 112%. Also, the ED50 in data set [2] (ip) was determined as 1.99 mg/kg.
Turning to `O=C1Nc2cc(Cl)c(Cl)cc2N2CCNC[C@@H]12` [Example 3, (S)-8,9-Dichloro-2,3,4,4a-Tetrahydro-1H-Pyrazino[1,2-a]Quinoxalin-5(6H)-One], in data set [1] (setting [5]), the Ki was 66.4 nM. The EC50 on human 5-HT2C receptor (setting [4]) was 290 nM. Also, the Emax at human 5-HT2C receptor (setting [3]) worked out at 89%.
`Clc1cc2c(cc1Cl)N1CCNCC1CN2` (centres unmarked) [Example 4, 8,9-Dichloro-2,3,4,4a,5,6-Hexahydro-1H-Pyrazino[1,2-a]Quinoxaline, dihydrochloride]: in data set [1] (setting [5]), the Ki was 1 nM. A half-maximal response on human 5-HT2C receptor (EC50) required 7.32 nM. Besides, the Emax on human 5-HT2C receptor (setting [3]) is 99%.
For `O=C1Nc2cc(C(F)(F)F)c(Cl)cc2N2CCNCC12` (centres unmarked) [Example 7, 9-Chloro-8-Trifluoromethyl-2,3 4,4a-Tetrahydro-1H-Pyrazino[1,2-a]-Quinoxalin-5(6H)-One, Hydrochloride], the Ki in data set [1] amounted to 8 nM. The half-maximal effective concentration (EC50) on human 5-HT2C receptor (setting [4]) amounted to 97.3 nM. In addition, the Emax at human 5-HT2C receptor (setting [3]) is 100%.
For `O=C1Nc2cc(C(F)(F)F)c(Cl)cc2N2CCNC[C@@H]12` [Example 8, (S)-9-Chloro-8-Trifluoromethyl-2,3,4,4a-Tetrahydro-1H-Pyrazino[1,2-a]-Quinoxalin-5(6H)-One. Hydrochloride], the Ki in data set [1] (setting [5]) is 516 nM. For the same molecule, the EC50 at human 5-HT2C receptor (setting [4]) stood at 2610 nM. In addition, the Emax on human 5-HT2C receptor (setting [3]) stood at 85%.
The like results for `O=C1Nc2cc(C(F)(F)F)c(Cl)cc2N2CCNC[C@H]12` [Example 9, (R)-9-Chloro-8-Trifluoromethyl-2,3,4,4a-Tetrahydro-1H-Pyrazino[1,2-a]-Quinoxalin-5(6H)-One, Hydrochloride] were, in that order, 25 nM, 18.8 nM and 100%.
Regarding `O=C1Nc2ccc(Cl)c(Cl)c2N2CCNCC12` (centres unmarked) [Example 10, 9,10-Dichloro-2,3.4,4a-Tetrahydro-1H-Pyrazino[1,2-a]-Quinoxalin-5(6H)-One, Hydrochloride], in data set [1], the Ki is 1040 nM.
Take `Cl.O=C1Nc2c(Cl)cc(Cl)cc2N2CCNCC12` (centres unmarked) [Example 11, 7,9-Dichloro-2,3,4,4A-Tetrahydro-1H-Pyrazino[1,2-a]Quinoxalin-5(6H)-One, Hydrochloride]: the Ki in data set [1] (setting [5]) amounted to 19.8 nM. For the same molecule, the Emax at human 5-HT2C receptor (read-out: 5HT2C % Emax (5HT, 100%) at single concentration) stood at 73%. Moreover, in data set [2] (ip), the ED50 was determined as 9.99 mg/kg.
With `O=C1Nc2ccc(Cl)cc2N2CCNC[C@H]12` [Example 12, (R)-9-Chloro-2,3,4,4a-Tetrahydro-1H-Pyrazino[1,2a]Quinoxalin-5(6H)-One], the Ki in data set [1] was determined as 9 nM. On human 5-HT2C receptor, this molecule showed an EC50 of 30 nM. In addition, the Emax on human 5-HT2C receptor (setting [3]) was 95%.
Turning to `O=C1Nc2cc(F)c(F)cc2N2CCNCC12` (centres unmarked) [Example 13, 8,9-Difluoro-2,3,4,4a-Tetrahydro-1H-Pyrazino[1,2-a]Quinoxalin-5(6H)-One], the Ki in data set [1] (setting [5]) worked out at 91 nM.
Regarding `CSc1ccc2c(c1)C(N1CCN(C)CC1)Cc1ccccc1S2` (centres unmarked) [Methiothepin, reference compound], the Ki in data set [1] (reference compounds, [125I] DOI binding, CHO cell membranes, read-out: Ki value and 95% confidence interval) was found to be 4.6 nM.
With `COc1cc(CC(C)N)c(OC)cc1I` (centres unmarked) [[^125I] DOI, reference compound], the Kd in data set [1] (read-out: dissociation constant, KD of [125I] DOI at the human serotonin 5HT2C receptor, saturation binding with increasing concentrations of [125I] DOI) is 0.4 nM.

The term melting point denotes the temperature, or range, at which the solid turns liquid. In general, EC50 refers to the midpoint of the concentration-response curve. The Kd is the constant that tells how readily two partners part at equilibrium.
